Legend:
PDE4B2 = PDE4B2 (Homo sapiens, UniProt Q07343); conditions: read-out: PDE4B2 IC50; enzyme assay
Flpin-293-PDE4B2 cells = Flpin-293-PDE4B2 cells (Homo sapiens, UniProt Q07343); test: cell-based; conditions: for inhibition at 0.001 µM: read-out: Cell Inhibition % @1 nM, 1 nM, Flpin-293-PDE4B2 cells; for inhibition at 0.01 µM: read-out: Cell Inhibition % @10 nM, 10 nM, Flpin-293-PDE4B2 cells; for inhibition at 0.1 µM: read-out: Cell Inhibition % @100 nM, 100 nM, Flpin-293-PDE4B2 cells
PDE4D2 = PDE4D2 (Homo sapiens, UniProt Q08499); test: PDE4D2 enzyme experiment (AMP-Glo); conditions: read-out: PDE4D2 IC50 Binding; enzyme assay
PDE4D2, sequence (Q08499 303-809 limits assumed): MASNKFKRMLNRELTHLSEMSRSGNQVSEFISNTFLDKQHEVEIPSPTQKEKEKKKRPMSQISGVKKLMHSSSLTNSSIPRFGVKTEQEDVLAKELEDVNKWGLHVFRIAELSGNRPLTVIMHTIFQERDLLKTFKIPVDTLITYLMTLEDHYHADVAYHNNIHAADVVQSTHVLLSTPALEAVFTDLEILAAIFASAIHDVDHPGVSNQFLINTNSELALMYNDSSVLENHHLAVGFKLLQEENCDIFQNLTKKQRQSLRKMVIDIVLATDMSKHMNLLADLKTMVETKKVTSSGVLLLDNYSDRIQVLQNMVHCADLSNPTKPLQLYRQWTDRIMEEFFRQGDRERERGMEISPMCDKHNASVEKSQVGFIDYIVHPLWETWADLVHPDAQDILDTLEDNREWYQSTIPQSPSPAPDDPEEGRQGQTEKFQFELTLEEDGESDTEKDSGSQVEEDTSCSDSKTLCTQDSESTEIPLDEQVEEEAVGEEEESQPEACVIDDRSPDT
Method: All compounds were dissolved in DMSO into 10 mM or 20 mM stock solutions. The compound to be tested was diluted with DMSO in a 3-fold gradient. 20 nL/well of the compound or a DMSO control was transferred to a 384-well plate by using Echo 550 instrument. The plate was sealed with a membrane and centrifuged for 1 minute. A 2× enzyme solution was prepared with an assay buffer, and 2 uL/well of the 2× enzyme solution was added, followed by equilibration at room temperature for 10 minutes. A 2× Cyclic-3′,5′-AMP substrate solution was prepared with an assay buffer, and 2 uL/well of the 2× substrate solution was added, followed by incubation at room temperature for 60 minutes. 4 μL of AMP-glo reagent was added, followed by incubation at room temperature for 60 minutes. 8 ul of an AMP detection solution was added, followed by incubation at room temperature for 60 minutes. An RLU value was read on Envision 2105 plate reader. The RLU value represents the concentration of the product AMP. Inhibition rate %=(1−(RLUpositive control−RLUcomnpound)/(RLUpositive control−RLUnegative control))*100. The IC50 value was then calculated by Graphpad 8.0 software using Y=Bottom+(Top−Bottom)/(1+10^((LogIC50−X)*HillSlope)).

Flpin-293-PDE4B2 cells, sequence (Q07343 1-564 isoform Q07343-2): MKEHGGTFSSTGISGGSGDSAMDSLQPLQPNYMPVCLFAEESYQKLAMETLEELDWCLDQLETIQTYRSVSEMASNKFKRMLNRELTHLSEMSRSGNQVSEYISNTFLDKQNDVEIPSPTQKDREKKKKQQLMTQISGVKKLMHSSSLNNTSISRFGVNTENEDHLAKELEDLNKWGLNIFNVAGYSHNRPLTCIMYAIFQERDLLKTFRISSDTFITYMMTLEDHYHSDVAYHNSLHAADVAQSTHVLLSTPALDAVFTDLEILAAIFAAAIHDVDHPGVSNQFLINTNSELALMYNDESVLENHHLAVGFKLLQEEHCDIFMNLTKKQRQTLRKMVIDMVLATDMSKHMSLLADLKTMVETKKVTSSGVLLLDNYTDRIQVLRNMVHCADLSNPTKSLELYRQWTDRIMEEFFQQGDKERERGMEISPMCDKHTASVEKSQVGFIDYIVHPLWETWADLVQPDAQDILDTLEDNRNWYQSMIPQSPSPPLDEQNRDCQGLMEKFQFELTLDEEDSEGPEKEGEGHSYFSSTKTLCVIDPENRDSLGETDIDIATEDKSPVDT
PDE4B2, sequence (Q07343 1-564 isoform Q07343-2, species assumed): as the sequence (Q07343 1-564 isoform Q07343-2) above

Compound | IC50 (PDE4B2) [nM] | inhibition at 0.001 µM (Flpin-293-PDE4B2 cells) [%] | inhibition at 0.01 µM (Flpin-293-PDE4B2 cells) [%] | inhibition at 0.1 µM (Flpin-293-PDE4B2 cells) [%] | IC50 (PDE4D2) [nM]
[O-][S+]1CCc2nc(N3CCc4cc(N5CCC6(CC5)COC6)ccc4C3)nc(NC3(CO)CCC3)c21 (centres unmarked) [Compound 166] | 0.457 | 9.23 | 61.6 | 98.2 | 0.453
O=S1(=O)CCC(Nc2nc(N3CCc4cc(N5CCCC5)ccc4C3)nc3c2[S+]([O-])CC3)CC1 (centres unmarked) [Compound 187] | 0.45 | 25.3 | 93.8 | 101 | 0.116
C[C@@H]1Cc2cc(Cl)ccc2CN1c1nc2c(c(NC3(CO)CCC3)n1)[S+]([O-])CC2 (some centres unmarked) [Compound 121] | 13.5 | 0.4 | 10 | 29.4 | 48.2
C[C@H]1c2ccc(N3CCCC3)cc2CCN1c1nc2c(c(NC3(CO)CCOCC3)n1)[S+]([O-])CC2 (some centres unmarked) [Compound 212] | 0.945 | 3.24 | 34.6 | 97.5 | 1.25
CN1CC2CN(c3ccc4c(c3)CCN(c3nc5c(c(NC6(CO)CCC6)n3)[S+]([O-])CC5)C4)CC2C1 (centres unmarked) [Compound 179] | 0.502 | 9.95 | 51.5 | 92.2 | 0.46
CN1CCN(c2ccc3c(c2)CCN(c2nc4c(c(NC5(CO)CCC5)n2)[S+]([O-])CC4)C3)CC1 (centres unmarked) [Compound 170] | 0.729 | 1.97 | 26.7 | 86.9 | 1.29
C[C@H]1c2ccc(N3CCCC3)cc2CCN1c1nc2c(c(Nc3cnn(CCO)c3)n1)[S+]([O-])CC2 (some centres unmarked) [Compound 210] |  |  |  |  | 1.21
C[C@H]1CCN1c1ccc2c(c1)CCN(c1nc3c(c(NC4(CO)CCC4)n1)[S+]([O-])CC3)C2 (some centres unmarked) [Compound 176] | 0.607 | 6.1 | 51.5 | 97.8 | 0.716
Cn1cnc(Nc2nc(N3CCc4cc(N5CCCC5)ccc4C3)nc3c2[S+]([O-])CC3)c1 (centres unmarked) [Compound 197] | 13.3 |  |  |  | 23.8
CN(C)C1CCN(c2ccc3c(c2)CCN(c2nc4c(c(NC5(CO)CCC5)n2)[S+]([O-])CC4)C3)C1 (centres unmarked) [Compound 148] | 0.7 | 3.99 | 37.3 | 92.1 | 1.1
[O-][S+]1CCc2nc(N3CCc4cc(N5C[C@H]6C[C@@H]5CO6)ccc4C3)nc(NC3(CO)CCC3)c21 (some centres unmarked) [Compound 153] | 0.182 | 10.2 | 76.8 | 99.9 | 0.52
N#CC1CCN(c2ccc3c(c2)CCN(c2nc4c(c(NC5(CO)CCC5)n2)[S+]([O-])CC4)C3)C1 (centres unmarked) [Compound 159] | 0.224 | 16.8 | 73.4 | 99.6 | 0.389
NC(=O)Cc1ccc(Nc2nc(N3CCc4cc(Cl)ccc4C3)nc3c2[S+]([O-])CC3)cc1 (centres unmarked) [Compound 127] | 0.164 | 9.78 | 73 | 100 | 0.424
CO[C@@H]1CCN(c2ccc3c(c2)CCN(c2nc4c(c(NC5(CO)CCC5)n2)[S+]([O-])CC4)C3)C1 (some centres unmarked) [Compound 152] | 0.426 | 16.1 | 66 | 99.2 | 0.748
[O-][S+]1CCc2nc(N3CCc4cc(N5CCCC5)ccc4C3)nc(Nc3cn[nH]c3)c21 (centres unmarked) [Compound 194] | 0.333 | 4.28 | 33.6 | 92.9 | 1.08
CC(C)(O)[C@@H]1CCN(c2ccc3c(c2)CCN(c2nc4c(c(NC5(CO)CCC5)n2)[S+]([O-])CC4)C3)C1 (some centres unmarked) [Compound 173] | 0.386 | 8.43 | 65.7 | 99.5 | 0.391
[O-][S+]1CCc2nc(N3CCc4cc(N5CCOCC5)ccc4C3)nc(NC3(CO)CCC3)c21 (centres unmarked) [Compound 144] | 0.44 | 7.35 | 51.4 | 98.6 | 0.697
[O-][S+]1CCc2nc(N3CCc4cc(N5CCCC5)ccc4C3)nc(NCCO)c21 (centres unmarked) [Compound 198] | 0.608 | 18.1 | 67.4 | 97.7 | 1.79
[O-][S+]1CCc2nc(N3CCc4cc(N5CCC(F)C5)ccc4C3)nc(NC3(CO)CCC3)c21 (centres unmarked) [Compound 149] | 0.43 | 5.99 | 38.3 | 96 | 1.08
Cn1cc(CNc2nc(N3CCc4cc(Cl)ccc4C3)nc3c2[S+]([O-])CC3)cn1 (centres unmarked) [Compound 142] | 0.837 | 6.79 | 34.8 | 94.4 | 2.27
C[C@H]1CCCN1c1ccc2c(c1)CCN(c1nc3c(c(NC4(CO)CCC4)n1)[S+]([O-])CC3)C2 (some centres unmarked) [Compound 134] | 0.098 | 19.2 | 86.8 | 101 | 0.24
O=S1(=O)C[C@H]2C[C@@H]1CN2c1ccc2c(c1)CCN(c1nc3c(c(NC4(CO)CCC4)n1)[S+]([O-])CC3)C2 (some centres unmarked) [Compound 163] | 0.17 | 11.9 | 56.7 | 96.7 | 0.3
Cn1cc(CNc2nc(N3CCc4cc(N5CCCC5)ccc4C3)nc3c2[S+]([O-])CC3)cn1 (centres unmarked) [Compound 190] | 0.168 | 3.93 | 47.1 | 96.7 | 0.572
[O-][S+]1CCc2nc(N3CCc4cc(N5CC[C@@H](CO)C5)ccc4C3)nc(NC3(CO)CCC3)c21 (some centres unmarked) [Compound 131] | 0.147 | 16.6 | 76 | 98.7 | 0.333
COC(=O)N1CC[C@H](Nc2nc(N3CCc4cc(N5CCCC5)ccc4C3)nc3c2[S+]([O-])CC3)C1 (some centres unmarked) [Compound 196] | 0.0693 | 23.7 | 89.5 | 100 | 0.244
[O-][S+]1CCc2nc(N3CCc4cc(N5C[C@@H]6[C@@H](CO)[C@@H]6C5)ccc4C3)nc(NC3(CO)CCC3)c21 (some centres unmarked) [Compound 174] | 0.197 |  |  |  | 0.231
[O-][S+]1CCc2nc(N3CCc4nc(N5CCCC5)sc4C3)nc(NC3(CO)CCC3)c21 (centres unmarked) [Compound 195] | 0.956 |  |  |  | 1.12
C[C@H]1c2ccc(N3CCCC3)cc2CCN1c1nc2c(c(Nc3cnn(C4COC4)c3)n1)[S+]([O-])CC2 (some centres unmarked) [Compound 208] | 0.22 |  |  |  | 0.766
(R)-2-(7-fluoro-6-(pyrrolidin-1-yl)-3,4-dihydroisoquinolin-2(1H)-yl)-4-((1-(hydroxymethyl)cyclobutyl)amino)-6,7-dihydrothieno[3,2-d]pyrimidine 5-oxide [Compound 181] |  |  |  |  | 0.876

Source: patent US20260285880A1, “SUBSTITUTED DIHYDROTHIENOPYRIMIDINE COMPOUND, PREPARATION METHOD THEREFOR, AND USE THEREOF” (SHANGHAI YIDI BIOTECHNOLOGY CO., LTD., priority 2023, published 2026)
